Measured values reported in ChEMBL document CHEMBL1201862, “PubChem BioAssay data set” (2004).
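1) Cells in 96-well plates. 2) Compound, 48 h, 5 concentrations. 3) Linear interpolation between surrounding doses. 4) Unreached endpoint = highest concentration. The concentration for 50% growth inhibition is given as GI50.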 Activity calls are given as the source filed them. No stated cut-off is given here; in the data, active = GI50 up to about 1.1 µM and inactive = higher. Starred links: 1 amine or outer side, 2 acyl side, 3 side chain; linkers in the order of their positions; H or OH if unused. Non-standard residues stand in square brackets, D forms with d. Residues, ends and D or L forms follow the SMILES beside them. ξ: configuration not given here. Ile(3ξ) = CCC(C)[C@H](N)C(=O)O; X35 = C=CCC(O[*:1])C(=O)[*:2]; NMeV = CN[C@H](C(=O)O)C(C)C; NMeA = CN[C@@H](C)C(=O)O; βAla = NCCC(=O)O

What was measured:
Assay in all cases: growth of human tumour cells (NCI), 48 h
[1] = tested on: COLO 205
[2] = tested on: SNB-19
[3] = tested on: NCI-H23
[4] = tested on: IGROV-1
[5] = tested on: SF-539
[6] = tested on: RXF 393
[7] = tested on: TK-10
[8] = tested on: OVCAR-4
[9] = tested on: Malme-3M
[10] = tested on: OVCAR-3
[11] = tested on: HOP-62
[12] = tested on: UACC-62
[13] = tested on: EKVX
[14] = tested on: M14
[15] = tested on: SNB-75
[16] = tested on: SF-268
[17] = tested on: NCI-H522

Measured: GI50

CCN(CC)c1ccc(/N=C2\C=C(Cl)C(=O)c3ncccc32)c(C)c1
inactive: [1] 4.2 µM | [2] 21.3 µM | [3] 3.24 µM | [4] 11.1 µM | [5] 12.4 µM | [6] 3.92 µM | [7] 4.37 µM | [8] 5.27 µM | [9] 2.88 µM | [10] 1.91 µM | [11] 5.37 µM | [12] 3.8 µM | [13] 11.2 µM | [14] 2.9 µM | [15] 14.4 µM

CS(=O)(=O)Sc1ccc(Cl)cc1
inactive: [1] 3.52 µM | [2] 3.4 µM | [16] 1.63 µM | [3] 13.8 µM | [4] 2.85 µM | [5] 2.55 µM | [6] 7.89 µM | [7] 14 µM | [8] 13.7 µM | [9] 11.6 µM | [10] 5.87 µM | [11] 2.83 µM | [13] 3.82 µM | [17] 3.24 µM | [14] 12.8 µM | [15] 3.21 µM

CC(C)NC1CCCCC2c3ccccc3C12O (centres undefined)
inactive: [1] > 100 µM | [2] > 100 µM | [16] > 100 µM | [3] > 100 µM | [6] > 100 µM | [7] > 100 µM | [8] > 100 µM | [9] > 100 µM | [11] > 100 µM | [12] > 100 µM | [13] > 100 µM | [17] > 100 µM | [14] > 100 µM | [15] > 100 µM

COc1ccc(O)c2c1C(=O)CCCC2=O
inactive: [1] > 100 µM | [2] > 100 µM | [16] > 100 µM | [3] > 100 µM | [4] > 100 µM | [5] > 100 µM | [7] > 100 µM | [8] > 100 µM | [9] > 100 µM | [10] > 100 µM | [11] > 100 µM | [12] > 100 µM | [13] 40.1 µM | [17] > 100 µM | [14] > 100 µM

C=CCC1OC(=O)CCNC(=O)[C@H](C)N(C)C(=O)[C@H](C(C)C)N(C)C(=O)[C@H](C(C)CC)NC(=O)[C@@H]2CCCN2C1=O (some centres undefined) (cyclo([Ile(3ξ)][NMeV][NMeA][βAla][X35]P))
inactive: [1] 5.14 µM | [2] > 39.4 µM | [16] 4.12 µM | [3] 26.7 µM | [4] 33.6 µM | [5] 10.1 µM | [6] > 100 µM | [7] > 38.3 µM | [8] 6.75 µM | [9] 3.28 µM | [10] 13.3 µM | [11] 4.09 µM | [12] 4.08 µM | [13] > 100 µM | [14] 2.61 µM | [15] > 21.1 µM

COc1cc(/C=C/C(=O)c2sc(NNC(C)=O)nc2C)ccc1O
inactive: [1] > 100 µM | [16] > 100 µM | [3] > 100 µM | [4] > 100 µM | [5] > 100 µM | [6] > 100 µM | [7] > 100 µM | [9] > 100 µM | [10] > 100 µM | [11] > 100 µM | [12] > 100 µM | [13] > 100 µM | [17] > 100 µM | [15] > 100 µM

Nc1nc(SCC(=O)c2ccccc2)c2[nH]cnc2n1
inactive: [1] > 100 µM | [2] > 100 µM | [16] > 100 µM | [3] > 100 µM | [4] > 100 µM | [5] > 100 µM | [7] > 100 µM | [8] > 100 µM | [9] > 100 µM | [10] > 100 µM | [11] > 100 µM | [12] > 100 µM | [17] > 100 µM | [14] > 100 µM | [15] 21.9 µM

C1=c2ccccc2=C2C(=C(c3ccccc3)C(c3ccccc3)=NN2c2ccccc2)S1
inactive: [1] > 100 µM | [2] > 100 µM | [16] > 100 µM | [3] > 100 µM | [4] > 100 µM | [5] > 100 µM | [6] > 100 µM | [7] > 100 µM | [8] > 100 µM | [9] > 100 µM | [11] > 100 µM | [12] > 100 µM | [13] > 100 µM | [17] > 100 µM | [14] > 100 µM | [15] > 100 µM

CCCCC[C@@H]1CCCC2NC(CCCCCO[Si](c3ccccc3)(c3ccccc3)C(C)(C)C)CCC21 (some centres undefined)
inactive: [2] 17.3 µM | [16] 17.9 µM | [3] 15.7 µM | [4] 16.9 µM | [5] 15.2 µM | [6] 11.3 µM | [7] 18.7 µM | [8] 8.67 µM | [9] 19.1 µM | [10] 16.6 µM | [11] 17.9 µM | [12] 19.5 µM | [13] 17.3 µM | [17] 15 µM | [14] 14.1 µM | [15] 16 µM

CN(C)c1nc(Oc2nc(N(C)C)nc(N(C)C)n2)nc(N(C)C)n1
inactive: [1] 22.1 µM | [2] > 100 µM | [16] > 100 µM | [3] 72.6 µM | [4] > 100 µM | [5] > 100 µM | [6] > 100 µM | [7] > 100 µM | [8] > 100 µM | [9] > 100 µM | [10] 46 µM | [12] > 100 µM | [13] > 100 µM | [17] 70.8 µM | [14] > 100 µM | [15] 35.9 µM

C=CCc1cc(OC)c2c(c1)C(O)CC(c1ccc(OC)c(OC)c1)O2 (centres undefined)
inactive: [1] > 100 µM | [2] > 100 µM | [16] > 100 µM | [3] > 100 µM | [4] > 100 µM | [5] 78.2 µM | [7] > 100 µM | [8] > 100 µM | [10] > 100 µM | [11] > 100 µM | [12] > 100 µM | [13] > 100 µM | [17] > 100 µM | [14] > 100 µM | [15] 89.5 µM

CC(O)C1OC(n2ccc(=O)[nH]c2=O)CC1n1cncn1 (centres undefined)
inactive: [1] > 100 µM | [2] > 100 µM | [16] > 100 µM | [3] > 100 µM | [4] > 100 µM | [6] > 100 µM | [7] > 100 µM | [8] > 100 µM | [9] > 100 µM | [10] > 100 µM | [11] > 100 µM | [12] > 100 µM | [13] > 100 µM | [17] > 100 µM | [14] > 100 µM

O=C(O)C12C3CCCC1C2CC3 (centres undefined)
inactive: [1] > 100 µM | [2] > 100 µM | [16] > 100 µM | [3] > 100 µM | [4] > 100 µM | [5] > 100 µM | [6] > 100 µM | [7] > 100 µM | [9] > 100 µM | [10] > 100 µM | [11] > 100 µM | [12] > 100 µM | [13] > 100 µM | [17] > 100 µM | [14] > 100 µM | [15] > 100 µM
